Source: patent publication US20240197762A1, “NUTRITIONAL COMPOSITION FOR STIMULATIONG BIFIDOBACTERIA” (FrieslandCampina Nederland B.V., priority 2021, published 2024)

System: bifidobacteria (B. adolescentis and B. longum)
Experiment: Fecal fermentations simulating the distal colon of elderly (microMatrix, shotgun metagenomics)
Type: cell-based, human (pool of fecal material of healthy 70+ human subjects)
Details: oligosaccharides at 0.5 wt % final concentration, 7 hours of fermentation, pH 6.8, 37° C., compared to the blanc; FIG. 1
Protocol: Fecal fermentations were performed in a 24 well plate using the microMatrix™ (Applikon Biotechnology) as described in M. M. O'Donnell et al., Front. Microbiol., vol. 9, Aug. 10, 2018, article 1844. The wells were filled in the anaerobic chamber with medium (composition: see Table 1) to which the oligosaccharides GOS (Biotis™ GOS ex-FrieslandCampina), 2′-FL (Aequival™ 2′-FL, ex-FrieslandCampina), or mixtures thereof were added at a final concentration of 0 (blanc) or 0.5 wt % (every condition in duplicate). The plate was put in the microMatrix™ for about 20 minutes to reduce the dissolved oxygen concentration to below 5% and to increase the temperature of the medium to 37° C. After these 20 minutes, the plate was inoculated with a pool of fecal material of healthy 70+ human subjects and fermentations were started. During the fermentations, the pH of was controlled at pH 6.8 with a dead zone of 0.1 using ammonium gas and CO2. The plates were orbitally shaken at 300 rpm. Mixed gas (CO2/H2/N2: 10/5/85) was used to keep the cultures anaerobic during fermentation. After 7 hours of fermentation a sample of 1 ml was taken. Fecal samples of eight healthy elderly were included in the pool. […]

2′-fucosyllactose [2′-FL]
relative abundance of B. adolescentis and B. longum and their combined amount, relative to total bacteria content: increased
